Article PMC10305003, “Phenothiazine- and Carbazole-Cyanochalcones as Dual Inhibitors of Tubulin Polymerization and Human Farnesyltransferase” (Pharmaceuticals, 2023)

Legend:
786-0 = test: NCI-60 one-dose screen, sulforhodamine B; type: cell-based, human; conditions: Renal Cancer 786-0, one dose 10 µM, 48h
Method: (§1) 2-Methylthiophenothiazine-cyanochalcones 2a-o were submitted to the National Cancer Institute (NCI) and were further selected for biological evaluation based on their panel of 60 cancer cell lines in vitro. Thus, 2-methylthiophenothiazines 2a-o were tested at a single dose of 10 µM in the full NCI-60 panel. The one-dose data are reported as an average of the growth inhibition percentage of the treated cells (Table 3 and Figure S1 in the Supplementary Materials section). Only three compounds, 2k, 2l, and 2o, from the series were active.
(§2) Compounds 2k, 2l, and 2o were tested on a panel of 60 human cancer cell lines at the National Cancer Institute, Germantown, MD [31]. The cytotoxicity studies were conducted using a 48h exposure protocol using the sulforhodamine B assay.

A498 = test: NCI-60 one-dose screen, sulforhodamine B; type: cell-based, human; conditions: Renal Cancer A498, one dose 10 µM, 48h
Method: as §1, §2

A549/ATCC = test: NCI-60 one-dose screen, sulforhodamine B; type: cell-based, human; conditions: Non-Small Cell Lung Cancer A549/ATCC, one dose 10 µM, 48h
Method: as §1, §2

ACHN = test: NCI-60 one-dose screen, sulforhodamine B; type: cell-based, human; conditions: Renal Cancer ACHN, one dose 10 µM, 48h
Method: as §1, §2

CAKI-1 = test: NCI-60 one-dose screen, sulforhodamine B; type: cell-based, human; conditions: Renal Cancer CAKI-1, one dose 10 µM, 48h
Method: as §1, §2

CCRF-CEM = test: NCI-60 one-dose screen, sulforhodamine B; type: cell-based, human; conditions: Leukemia CCRF-CEM, one dose 10 µM, 48h
Method: as §1, §2

COLO 205 = test: NCI-60 one-dose screen, sulforhodamine B; type: cell-based, human; conditions: Colon Cancer COLO 205, one dose 10 µM, 48h
Method: as §1, §2

EKVX = test: NCI-60 one-dose screen, sulforhodamine B; type: cell-based, human; conditions: Non-Small Cell Lung Cancer EKVX, one dose 10 µM, 48h
Method: as §1, §2

HCT-116 = test: NCI-60 one-dose screen, sulforhodamine B; type: cell-based, human; conditions: Colon Cancer HCT-116, one dose 10 µM, 48h
Method: as §1, §2

HCT-15 = test: NCI-60 one-dose screen, sulforhodamine B; type: cell-based, human; conditions: Colon Cancer HCT-15, one dose 10 µM, 48h
Method: as §1, §2

HOP-92 = test: NCI-60 one-dose screen, sulforhodamine B; type: cell-based, human; conditions: Non-Small Cell Lung Cancer HOP-92, one dose 10 µM, 48h
Method: as §1, §2

HS 578T = test: NCI-60 one-dose screen, sulforhodamine B; type: cell-based, human; conditions: Breast Cancer HS 578T, one dose 10 µM, 48h
Method: as §1, §2

HT29 = test: NCI-60 one-dose screen, sulforhodamine B; type: cell-based, human; conditions: Colon Cancer HT29, one dose 10 µM, 48h
Method: as §1, §2

IGROV1 = test: NCI-60 one-dose screen, sulforhodamine B; type: cell-based, human; conditions: Ovarian Cancer IGROV1, one dose 10 µM, 48h
Method: as §1, §2

K-562 = test: NCI-60 one-dose screen, sulforhodamine B; type: cell-based, human; conditions: Leukemia K-562, one dose 10 µM, 48h
Method: as §1, §2

KM12 = test: NCI-60 one-dose screen, sulforhodamine B; type: cell-based, human; conditions: Colon Cancer KM12, one dose 10 µM, 48h
Method: as §1, §2

M14 = test: NCI-60 one-dose screen, sulforhodamine B; type: cell-based, human; conditions: Melanoma M14, one dose 10 µM, 48h
Method: as §1, §2

MCF7 = test: NCI-60 one-dose screen, sulforhodamine B; type: cell-based, human; conditions: Breast Cancer MCF7, one dose 10 µM, 48h
Method: as §1, §2

MDA-MB-435 = test: NCI-60 one-dose screen, sulforhodamine B; type: cell-based, human; conditions: Melanoma MDA-MB-435, one dose 10 µM, 48h
Method: as §1, §2

MDA-MB-468 = test: NCI-60 one-dose screen, sulforhodamine B; type: cell-based, human; conditions: Breast Cancer MDA-MB-468, one dose 10 µM, 48h
Method: as §1, §2

MOLT-4 = test: NCI-60 one-dose screen, sulforhodamine B; type: cell-based, human; conditions: Leukemia MOLT-4, one dose 10 µM, 48h
Method: as §1, §2

NCI-H226 = test: NCI-60 one-dose screen, sulforhodamine B; type: cell-based, human; conditions: Non-Small Cell Lung Cancer NCI-H226, one dose 10 µM, 48h
Method: as §1, §2

NCI-H460 = test: NCI-60 one-dose screen, sulforhodamine B; type: cell-based, human; conditions: Non-Small Cell Lung Cancer NCI-H460, one dose 10 µM, 48h
Method: as §1, §2

OVCAR-3 = test: NCI-60 one-dose screen, sulforhodamine B; type: cell-based, human; conditions: Ovarian Cancer OVCAR-3, one dose 10 µM, 48h
Method: as §1, §2

PC-3 = test: NCI-60 one-dose screen, sulforhodamine B; type: cell-based, human; conditions: Prostate Cancer PC-3, one dose 10 µM, 48h
Method: as §1, §2

RPMI-8226 = test: NCI-60 one-dose screen, sulforhodamine B; type: cell-based, human; conditions: Leukemia RPMI-8226, one dose 10 µM, 48h
Method: as §1, §2

RXF 393 = test: NCI-60 one-dose screen, sulforhodamine B; type: cell-based, human; conditions: Renal Cancer RXF 393, one dose 10 µM, 48h
Method: as §1, §2

SF-295 = test: NCI-60 one-dose screen, sulforhodamine B; type: cell-based, human; conditions: CNS Cancer SF-295, one dose 10 µM, 48h
Method: as §1, §2

SK-MEL-2 = test: NCI-60 one-dose screen, sulforhodamine B; type: cell-based, human; conditions: Melanoma SK-MEL-2, one dose 10 µM, 48h
Method: as §1, §2

SN12C = test: NCI-60 one-dose screen, sulforhodamine B; type: cell-based, human; conditions: Renal Cancer SN12C, one dose 10 µM, 48h
Method: as §1, §2

SNB-19 = test: NCI-60 one-dose screen, sulforhodamine B; type: cell-based, human; conditions: CNS Cancer SNB-19, one dose 10 µM, 48h
Method: as §1, §2

SR = test: NCI-60 one-dose screen, sulforhodamine B; type: cell-based, human; conditions: Leukemia SR, one dose 10 µM, 48h
Method: as §1, §2

SW-620 = test: NCI-60 one-dose screen, sulforhodamine B; type: cell-based, human; conditions: Colon Cancer SW-620, one dose 10 µM, 48h
Method: as §1, §2

T-47D = test: NCI-60 one-dose screen, sulforhodamine B; type: cell-based, human; conditions: Breast Cancer T-47D, one dose 10 µM, 48h
Method: as §1, §2

U251 = test: NCI-60 one-dose screen, sulforhodamine B; type: cell-based, human; conditions: CNS Cancer U251, one dose 10 µM, 48h
Method: as §1, §2

UACC-62 = test: NCI-60 one-dose screen, sulforhodamine B; type: cell-based, human; conditions: Melanoma UACC-62, one dose 10 µM, 48h
Method: as §1, §2

HL-60(TB) = test: NCI-60 one-dose screen, sulforhodamine B; type: cell-based, human; conditions: Leukemia HL-60(TB), one dose 10 µM, 48h
Method: as §1, §2

NCI-H522 = test: NCI-60 one-dose screen, sulforhodamine B; type: cell-based, human; conditions: Non-Small Cell Lung Cancer NCI-H522, one dose 10 µM, 48h
Method: as §1, §2

SF-539 = test: NCI-60 one-dose screen, sulforhodamine B; type: cell-based, human; conditions: CNS Cancer SF-539, one dose 10 µM, 48h
Method: as §1, §2

SNB-75 = test: NCI-60 one-dose screen, sulforhodamine B; type: cell-based, human; conditions: CNS Cancer SNB-75, one dose 10 µM, 48h
Method: as §1, §2

CSc1ccc2c(c1)N(C(=O)/C(C#N)=C/c1c[nH]c3ccccc13)c1ccccc1S2 [Compound 2k, (E)-3-(1H-Indol-3-yl)-2-(2-(methylthio)-10H-phenothiazine-10-carbonyl)acrylonitrile]
GI% (10 µM) (786-0): 50%
GI% (10 µM) (A498): 89%
GI% (10 µM) (A549/ATCC): 53%
GI% (10 µM) (ACHN): 60%
GI% (10 µM) (CAKI-1): 61%
GI% (10 µM) (CCRF-CEM): 80%
GI% (10 µM) (COLO 205): 59%
GI% (10 µM) (EKVX): 65%
GI% (10 µM) (HCT-116): 76%
GI% (10 µM) (HCT-15): 73%
GI% (10 µM) (HOP-92): 56%
GI% (10 µM) (HS 578T): 62%
GI% (10 µM) (HT29): 88%
GI% (10 µM) (IGROV1): 60%
GI% (10 µM) (K-562): 84%
GI% (10 µM) (KM12): 76%
GI% (10 µM) (M14): 71%
GI% (10 µM) (MCF7): 77%
GI% (10 µM) (MDA-MB-435): 88%
GI% (10 µM) (MDA-MB-468): 88%
GI% (10 µM) (MOLT-4): 70%
GI% (10 µM) (NCI-H226): 50%
GI% (10 µM) (NCI-H460): 55%
GI% (10 µM) (OVCAR-3): 63%
GI% (10 µM) (PC-3): 71%
GI% (10 µM) (RPMI-8226): 79%
GI% (10 µM) (RXF 393): 61%
GI% (10 µM) (SF-295): 85%
GI% (10 µM) (SK-MEL-2): 64%
GI% (10 µM) (SN12C): 66%
GI% (10 µM) (SNB-19): 59%
GI% (10 µM) (SR): 66%
GI% (10 µM) (SW-620): 65%
GI% (10 µM) (T-47D): 70%
GI% (10 µM) (U251): 58%
GI% (10 µM) (UACC-62): 58%
melting point: 194 to 195 °C

COc1ccc2[nH]cc(/C=C(\C#N)C(=O)N3c4ccccc4Sc4ccc(SC)cc43)c2c1 [Compound 2l, (E)-3-(5-Methoxy-1H-indol-3-yl)-2-(2-(methylthio)-10H-phenothiazine-10-carbonyl)acrylonitrile]
GI% (10 µM) (786-0): 13%
GI% (10 µM) (A498): 0%
GI% (10 µM) (A549/ATCC): 34%
GI% (10 µM) (ACHN): 23%
GI% (10 µM) (CAKI-1): 49%
GI% (10 µM) (CCRF-CEM): 49%
GI% (10 µM) (COLO 205): 0%
GI% (10 µM) (EKVX): 29%
GI% (10 µM) (HCT-116): 40%
GI% (10 µM) (HCT-15): 45%
GI% (10 µM) (HL-60(TB)): 19%
GI% (10 µM) (HOP-92): 0%
GI% (10 µM) (HS 578T): 20%
GI% (10 µM) (HT29): 42%
GI% (10 µM) (IGROV1): 0%
GI% (10 µM) (K-562): 43%
GI% (10 µM) (KM12): 49%
GI% (10 µM) (M14): 36%
GI% (10 µM) (MCF7): 25%
GI% (10 µM) (MDA-MB-435): 20%
GI% (10 µM) (MDA-MB-468): 32%
GI% (10 µM) (MOLT-4): 40%
GI% (10 µM) (NCI-H226): 35%
GI% (10 µM) (NCI-H460): 0%
GI% (10 µM) (NCI-H522): 39%
GI% (10 µM) (OVCAR-3): 16%
GI% (10 µM) (PC-3): 60%
GI% (10 µM) (RPMI-8226): 0%
GI% (10 µM) (RXF 393): 27%
GI% (10 µM) (SF-295): 20%
GI% (10 µM) (SF-539): 0%
GI% (10 µM) (SK-MEL-2): 0%
GI% (10 µM) (SN12C): 20%
GI% (10 µM) (SNB-19): 0%
GI% (10 µM) (SNB-75): 0%
GI% (10 µM) (SR): 0%
GI% (10 µM) (SW-620): 15%
GI% (10 µM) (T-47D): 57%
GI% (10 µM) (U251): 0%
GI% (10 µM) (UACC-62): 0%
